From patent publication US20100215710A1, “Beta-2 Adrenergic Receptor Agonists and Antagonists and Modulation of Wound Healing” (The Regents of the University of California, priority 2005, published 2010)

Assays:
[1] = system: adult human CECs; experiment: Immunofluorescent staining of actin and vinculin, adult human CECs; format: cell-based
Procedure: Sterile glass cover slips were transferred into 12 well dishes and collagen-coated with 60 μg/ml collagen I in PBS for 1 hour at 37° C. Cover slips were washed three times with CGM and 3×10^4 adult human CECs were added per well and allowed to attach for 3 hours or overnight. Cells were untreated (control […]), treated with 20 μM β-AR antagonist, 10 nM or 1 μM β-AR agonist for 15 minutes, 100 nM OA for 45 minutes, or pre-treated with 100 nM OA for 30 minutes prior to the addition of 10 nM or 1 μM β-AR agonist for 15 minutes. […]
Cells plated in the absence of β-AR agonist are polarized and crescent shaped with a broad lamellipodium, characteristic of the migratory phenotype (Ridley et al. (2003) “Cell migration: integrating signals from front to back” Science 302:1704-9). […] Image J was used to measure the actin and vinculin associated fluorescence by measuring the mean pixel intensity (MPI) of 25 cells from each condition. Control cells have an MPI of 40.3+/−4.8. β-AR agonist treatment has no significant effect on actin and vinculin associated fluorescence; the MPI of β-AR agonist-treated cells is 44.6+/−2.

[2] = system: adult human CECs; experiment: Single cell migration assay, adult human corneal epithelial cells; format: cell-based
Procedure: Glass bottomed 35 mm dishes (MatTek Corporation, Ashland, Mass.) were coated with collagen I (60 μg/ml) (Cohesion Technologies, Palo Alto, Calif.) in PBS for 1 hour at 37° C. Adult human CECs were plated at a density of 50 cells/mm^2 for 2 hours at 37° C. Cells were pre-incubated with either CGM alone or CGM containing 100 nM okadaic acid (OA) for 45 minutes at 37° C. Untreated cells were then incubated with CGM alone (control) or with CGM containing either 20 μM β-AR antagonist, 10 nM or 1 μM β-AR agonist. Pre-treated cells were stimulated with 100 nM OA alone or both 10 nM or 1 μM β-AR agonist and 100 nM OA at time 0. The 35 mm glass-bottomed dishes were placed in a heating chamber, designed to maintain the media between 35-37° C., secured to the stage of an inverted Nikon Diaphot microscope. Individual cell migration was monitored over a 1 hour period at 37° C., as described previously (Pullar and Isseroff (2005b) “Cyclic AMP mediates keratinocyte directional migration in an electric field” J Cell Sci 118:2023-2034). […] After each cell's center of mass was tracked using the Open Lab software, migration speed and distance were calculated and imported to Excel (Microsoft Corporation, Redmond, Wash.). […]

Question: Which results are given for `C=C1[C@@H](O)[C@@H]2O[C@]3(CC[C@H](/C=C/[C@@H](C)[C@@H]4CC(C)=C[C@@]5(O[C@H](C[C@@](C)(O)C(=O)O)CC[C@H]5O)O4)O3)CC[C@H]2O[C@@H]1[C@@H](O)C[C@H](C)[C@H]1O[C@@]2(CCCCO2)CC[C@H]1C` [OA, okadaic acid]?
Answer: effect on cytoskeletal organization ([1]; OA 100 nM alone): no effect; effect on β2-AR-mediated alterations in cytoskeletal organization ([1]; OA 100 nM pre-treatment prior to β-AR agonist 10 nM): prevents; effect on migration rate ([2]; OA 100 nM alone): no effect; effect on β-AR agonist-mediated decrease in migration rate ([2]; OA 100 nM pre-treatment, then OA plus β-AR agonist): completely prevents
